For one data set, the target named is T1, FXR (Homo sapiens, UniProt Q96RI1).
T1 construct: expressed in transfected cells; host or cells: HEK293T
T1 sequence (Q96RI1 212-476 isoform Q96RI1-1): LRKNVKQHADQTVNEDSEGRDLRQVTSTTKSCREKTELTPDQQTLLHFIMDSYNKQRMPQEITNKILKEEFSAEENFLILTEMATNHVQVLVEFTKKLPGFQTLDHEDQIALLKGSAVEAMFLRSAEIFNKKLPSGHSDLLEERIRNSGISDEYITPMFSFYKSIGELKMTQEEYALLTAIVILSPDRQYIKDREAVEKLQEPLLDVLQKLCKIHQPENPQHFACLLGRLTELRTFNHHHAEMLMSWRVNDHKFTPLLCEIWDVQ
The experiment in a line: FXR agonistic activity by reporter gene (pGAL4-FXR-LBD / pG5-Luc, Dual-Glo luciferase) in HEK293T cells. It counts as cell-based. The procedure: 1.2 Plasmid Co-transfection of HEK293T Cells and Compound Treatment HEK293T cells were seeded in 96-well plates at a density of 1×10^4/well one day before plasmid transfection. […] 2 duplicate wells were set up in total. […] The dose-response curves were fitted with four parameters using GraphPad Prism 6.0 software, and EC50 values were calculated.
(A reporter such as luciferase makes a cellular process visible.)

For data set [1] the following is noted: mouse, in vivo, iv, 1 mg/kg.
Method: (§1) In each group of embodiment, 6 male ICR mice with a similar body weight were selected, of which 3 mice were dosed orally in a single dose of 3 mg/kg, and 3 mice were dosed intravenously in a single dose of 1 mg/kg. Blood samples were collected at time points of 15 min, 30 min, 1 h, 2 h, 4 h and 7 h after administration. The concentrations of plasma samples were analyzed by LC-MS/MS.
(§2) 12 healthy male ICR mice, commercially available from Charles River with an animal production license NO.: 2021123 1Abzz0619000376, were divided into 4 groups, 3 in each group.
(§3) Formulation preparation: a certain amount of compounds were weighed and added into a 2% DMSO+15% Solutol+83% saline, to prepare a clear solution.
(§4) Dosage: ICR mice were fasted overnight and given each compound at an oral dose of 3 mg/kg or an intravenous dose of 1 mg/kg. The administrated volume for oral and intravenous administration are 10 mL/kg and 5 mL/kg, respectively.
(§5) Sample collection: About 30 µL of blood was collected via great saphenous vein at 15 min, 30 min, 1 h, 2 h, 4 h and 7 h after dosage. The blood was placed into a commercial tube containing K2-EDTA. Plasma samples were then obtained by centrifuging the blood samples at approximately 4°C, 4600 rpm for 5 minutes. All plasma samples were then quickly frozen on dry ice and kept at -70°C until LC-MS/MS analysis.
(§6) Sample preparation: 10 µL of plasma samples were precipitated by methanol containing 50 nmol/L of α-naphthoflavone as internal standard. The mixture was votex-mixed well and centrifuged at 14000 rpm for 5 min at 4°C. 75 µL of the supernatant was taken and mixed with 75 µL of methanol, and introduced for LC-MS/MS analysis.
A short description of another data set: in vivo. As to conditions: mouse, po, 3 mg/kg.
[2] abbreviates: HEK293T cells co-transfected with pGAL4-FXR-LBD, pG5-Luc, phRL-TK, 24 h treatment, read-out: Cellular Level Activity EC50(nM) of FXR.
Setting [3] is: HEK293T reporter gene assay, read-out: EC50 values (FXR agonistic activity).
The mark [4] stands for this setting: Cellular Level Activity EC50(nM) of FXR, HEK293T cells co-transfected with pGAL4-FXR-LBD, pG5-Luc, phRL-TK, 24 h treatment.
The mark [5] stands for this setting: EC50 values (FXR agonistic activity), HEK293T reporter gene assay.

Like-named read-outs stand apart in the source and are kept apart here.

Method for in vivo: as §1, §2, §3, §4, §5, §6

As to `[2H]C([2H])(OC1CC2CCC(C1)N2c1ccc(-c2noc(=O)[nH]2)cc1)c1c(-c2c(Cl)cccc2Cl)noc1C1CC1` (stereo not shown) [Example 1], the concentration for a half-maximal effect (EC50) on FXR (setting [2]) and at FXR (setting [3]) was less than 5 nM each time.
On to `[2H]C([2H])(OC1CC2CCC(C1)N2c1ccc(-c2noc(=O)[nH]2)nc1)c1c(-c2c(Cl)cccc2Cl)noc1C1CC1` (stereo not shown) [Example 2], for which the EC50 at FXR (setting [2]) and on FXR (setting [3]) was less than 5 nM in each case.
`[2H]C([2H])(OC1CC2CCC(C1)N2c1ccc(-c2noc(=O)[nH]2)c(OC)c1)c1c(-c2c(Cl)cccc2Cl)noc1C1CC1` (stereo not shown) [Example 6]: the EC50 (commonly the concentration that produces a half-maximal response) at FXR (setting [2]) lay in the range of 5 to 10 nM.
For `[2H]C([2H])(OC1CC2CCC(C1)N2c1ccc(-c2noc(=O)[nH]2)c(F)c1)c1c(-c2c(Cl)cccc2Cl)noc1C1CC1` (stereo not shown) [Example 3], the EC50 on FXR (setting [4]) and at FXR (setting [5]) was less than 5 nM each time. Further, at FXR (HEK293T reporter gene assay, comparison with LJN452 and Control 1), the “FXR agonistic activity / cellular level activity (in words)” value is given as “significantly improved activity”.
With `O=c1[nH]c(-c2ccc(N3C4CCC3CC(OCc3c(-c5ccccc5C(F)(F)F)noc3C3CC3)C4)cc2F)no1` (stereo not shown) [Embodime nt 1], in data set [1], the “CL_obs” value was determined as 20.5 ± 4.6 mL/min/kg and the “Vss_obs” value was 0.418 ± 0.076 L/kg. In addition, in the data set “in vivo”, the AUC(0-t) (usually the area under the concentration-time curve up to a stated or last time point) at 7 h worked out at 318 ± 172 ng·h/mL; the Cmax (in general, the highest concentration seen after dosing) came out at 312 ± 140 ng/mL; the bioavailability (as a rule, dose-corrected exposure relative to a reference, in per cent) was 12.6%.
For the compound `[2H]C(OC1CC2CCC(C1)N2c1ccc(-c2noc(=O)[nH]2)c(F)c1)c1c(-c2c(Cl)cccc2Cl)noc1C1CC1` (stereo not shown) [Example 4], the EC50 on FXR (setting [4]) and on FXR (setting [5]) was less than 5 nM each time.
Take `[2H]C([2H])(OC1CC2CCC(C1)N2c1ccc(-c2noc(=O)[nH]2)c(F)c1)c1c(-c2ccccc2OC(F)(F)F)noc1C1CC1` (stereo not shown) [Example 9]: on FXR (setting [2]), the EC50 lay within 5 to 10 nM.
The compound `O=c1[nH]c(-c2ccc(N3[C@@H]4CC[C@H]3C[C@@H](OCc3c(-c5c(Cl)cccc5Cl)noc3C3CC3)C4)cc2F)no1` [Control 1, reference compound] returned an EC50 on FXR (setting [4]) of 5 to 10 nM.
For the compound `[2H]C([2H])(O[C@H]1C[C@H]2CC[C@@H](C1)N2c1ccc(-c2noc(=O)[nH]2)c(F)c1)c1c(-c2ccccc2C(F)(F)F)noc1C1CC1` [Embodime nt 2], in data set [1], the “CL_obs” value was 21.6 ± 2.4 mL/min/kg and the “Vss_obs” value turned out to be 0.704 ± 0.033 L/kg. In the data set “in vivo”, this compound had an exposure AUC(0-t) at 7 h of 587 ± 54 ng·h/mL, a Cmax of 555 ± 25 ng/mL and a bioavailability of 25.2%.
Regarding `[2H]C([2H])(OC1CC2CCC(C1)N2c1ccc(-c2noc(=O)[nH]2)c(C(F)(F)F)c1)c1c(-c2c(Cl)cccc2Cl)noc1C1CC1` (stereo not shown) [Example 7], the EC50 at FXR (setting [2]) lay in the range of 5 to 10 nM.
The same measure, in the same setting: then `[2H]C([2H])(OC1CC2CCC(C1)N2c1ccc(-c2noc(=O)[nH]2)c(F)c1)c1c(-c2ccccc2C(F)(F)F)noc1C1CC1` (stereo not shown) [Example 8], with 5 to 10 nM.
On the same count and under the same terms, then `[2H]C([2H])(OC1CC2CCC(C1)N2c1ccc(-c2noc(=O)[nH]2)c(C)c1)c1c(-c2c(Cl)cccc2Cl)noc1C1CC1` (stereo not shown) [Example 5], with 5 to 10 nM.

Source of the values: patent publication EP4245365B1, “A FXR SMALL MOLECULE AGONIST, THE PREPARATION AND USE THEREOF” (Cascade Pharmaceuticals, Inc., priority 2022, dated 2023).
